The supplement of paper PMC10627819

Columns and labels:
[1] = system: B. subtilis 168; experiment: fitness (endpoint OD595 vs no drug) (fraction); higher = more growth
In short: (§1)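 Bacterial growth was followed in 384-well plates seeded at OD595 0.01, with 30 µl per well, or 55 µl for S. pneumoniae, in TSB, LB Lennox or CY at 37 °C. OD595 was read every 30 min for 14 h, and each reading had the first reading subtracted as background. Fitness is the background-corrected optical density at entry into stationary phase divided by the robust mean of the no-drug control wells. This ratio is capped at 1.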

[2] = system: S. aureus Newman; experiment: as above
In short: as §1

[3] = system: S. pneumoniae D39V; experiment: as above
In short: as §1

[4] = system: B. subtilis 168; experiment: Bliss interaction score (quartile over a dose matrix) (fitness difference); higher = more antagonism (negative = synergy)
In short: (§2)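 Fitness was derived from optical density at entry into stationary phase, divided by the robust mean of the no-drug wells on the same plate. That reading was taken as OD595, and the ratio was capped at 1. Single-drug fitness was inferred from the combination data. The Bliss score, observed fitness minus the expected product of single-drug fitness, was summarised as quartiles over technical, biological and donor/recipient replicates.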

[5] = system: S. aureus DSM 20231; experiment: as above
In short: as §2

[6] = system: S. aureus Newman; experiment: as above
In short: as §2

[7] = system: S. pneumoniae D39V; experiment: as above
In short: as §2
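Wherever Bliss interaction score (quartile over a dose matrix) is given: first quartile when negative (synergy) and third quartile when positive (antagonism).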

CN[C@@H]1[C@H](O[C@H]2[C@H](O[C@H]3[C@H](O)[C@@H](O)[C@H](N=C(N)N)[C@@H](O)[C@@H]3N=C(N)N)O[C@@H](C)[C@]2(O)C=O)O[C@@H](CO)[C@H](O)[C@H]1O [Streptomycin] + CN(C)c1cc(NC(=O)CNC(C)(C)C)c(O)c2c1C[C@H]1C[C@H]3[C@H](N(C)C)C(O)=C(C(N)=O)C(=O)[C@@]3(O)C(O)=C1C2=O [Tigecycline]
fitness
Conditions	partner 0.039 µg/mL	partner 0.078 µg/mL	partner 0.156 µg/mL	partner 0.65 µg/mL	partner 1.3 µg/mL	partner 2.6 µg/mL
[1], first compound 2 µg/mL	0.974	0.985	0.968	–	–	–
[2], first compound 1 µg/mL	0.94	0.986	0.971	–	–	–
[2], first compound 2 µg/mL	0.966	0.95	0.989	–	–	–
[3], first compound 2 µg/mL	–	–	–	0.96	0.973	0.891
[3], first compound 4 µg/mL	–	–	–	0.968	0.989	0.962
[3], first compound 8 µg/mL	–	–	–	0.88	0.938	0.914

fitness, one replicate
Conditions	partner 0.125 µg/mL	partner 0.25 µg/mL	partner 0.5 µg/mL	partner 0.65 µg/mL	partner 1.3 µg/mL	partner 2.6 µg/mL
[1], first compound 2 µg/mL	0.98	0.955	0.951	–	–	–
[1], first compound 4 µg/mL	0.982	0.914	≥ 1	–	–	–
[1], first compound 8 µg/mL	0.481	0.474	0.519	–	–	–
[3], first compound 16 µg/mL	–	–	–	0.866	0.81	0.829

Conditions	Bliss interaction score
[4]	0.145
[5]	0.064
[6]	0.0427
[7]	0.0816

CN[C@@H]1[C@H](O[C@H]2[C@H](O[C@H]3[C@H](O)[C@@H](O)[C@H](N=C(N)N)[C@@H](O)[C@@H]3N=C(N)N)O[C@@H](C)[C@]2(O)C=O)O[C@@H](CO)[C@H](O)[C@H]1O [Streptomycin] + CN(N=O)C(=O)N[C@@H](C=O)[C@@H](O)[C@H](O)[C@H](O)CO [Streptozotocin]
fitness
Conditions	first compound 1 µg/mL	first compound 2 µg/mL	first compound 4 µg/mL	first compound 8 µg/mL
[1], partner 0.15 µg/mL	–	0.954	0.308	0.0987
[1], partner 0.3 µg/mL	–	0.978	0.332	0.0267
[1], partner 0.6 µg/mL	–	0.98	0.266	0.0223
[2], partner 0.15 µg/mL	0.884	0.818	–	–
[2], partner 0.3 µg/mL	0.767	0.649	–	–
[2], partner 0.6 µg/mL	0.555	0.485	0.473	–
[3], partner 1.2 µg/mL	–	0.988	0.975	0.896
[3], partner 2.4 µg/mL	–	0.945	0.932	0.951
[3], partner 4.8 µg/mL	–	0.954	0.958	0.903

[3], first compound 16 µg/mL, one replicate
Conditions	fitness
partner 1.2 µg/mL	0.744
partner 2.4 µg/mL	0.773
partner 4.8 µg/mL	0.782

Conditions	Bliss interaction score
[4]	-0.134
[5]	-0.109
[6]	0.0357
[7]	0.062

CN[C@@H]1[C@H](O[C@H]2[C@H](O[C@H]3[C@H](O)[C@@H](O)[C@H](N=C(N)N)[C@@H](O)[C@@H]3N=C(N)N)O[C@@H](C)[C@]2(O)C=O)O[C@@H](CO)[C@H](O)[C@H]1O [Streptomycin] + CN[C@H](CC(C)C)C(=O)N[C@H]1C(=O)N[C@@H](CC(N)=O)C(=O)N[C@H]2C(=O)N[C@H]3C(=O)N[C@H](C(=O)N[C@H](C(=O)O)c4cc(O)cc(O)c4-c4cc3ccc4O)[C@H](O)c3ccc(c(Cl)c3)Oc3cc2cc(c3O[C@@H]2O[C@H](CO)[C@@H](O)[C@H](O)[C@H]2O[C@H]2C[C@](C)(N)[C@H](O)[C@H](C)O2)Oc2ccc(cc2Cl)[C@H]1O [Vancomycin]
fitness
Conditions	first compound 1 µg/mL	first compound 2 µg/mL	first compound 4 µg/mL	first compound 8 µg/mL
[2], partner 0.1875 µg/mL	0.959	0.941	–	–
[2], partner 0.375 µg/mL	0.952	0.946	–	–
[2], partner 0.75 µg/mL	0.978	0.944	–	–
[3], partner 0.03125 µg/mL	–	0.978	0.956	0.941
[3], partner 0.0625 µg/mL	–	0.921	0.969	0.913
[3], partner 0.125 µg/mL	–	0.942	0.942	–
[3], partner 0.25 µg/mL	–	–	0.704	0.691
[3], partner 0.5 µg/mL	–	–	0.0741	0.0434

fitness, [3], one replicate
Conditions	partner 0.125 µg/mL	partner 0.25 µg/mL	partner 0.5 µg/mL
first compound 2 µg/mL	–	0.422	0.0318
first compound 16 µg/mL	0.825	0.112	0.0914

Conditions	Bliss interaction score
[4]	-0.0393
[5]	0.0918
[6]	0.055
[7]	0.088

CN[C@@H]1[C@H](O[C@H]2[C@H](O[C@H]3[C@H](O)[C@@H](O)[C@H](N=C(N)N)[C@@H](O)[C@@H]3N=C(N)N)O[C@@H](C)[C@]2(O)C=O)O[C@@H](CO)[C@H](O)[C@H]1O [Streptomycin] + Cn1nnc(-c2ccc(-c3ccc(N4C[C@H](CO)OC4=O)cc3F)cn2)n1 [Tedizolid]
fitness
Conditions	partner 0.03125 µg/mL	partner 0.0625 µg/mL	partner 0.125 µg/mL	partner 0.25 µg/mL	partner 0.5 µg/mL
[2], first compound 1 µg/mL	–	0.928	0.767	–	–
[3], first compound 2 µg/mL	0.896	0.952	0.811	–	–
[3], first compound 4 µg/mL	0.898	0.886	0.788	0.739	0.336
[3], first compound 8 µg/mL	0.893	0.912	0.829	0.732	0.353

fitness, [3], one replicate
Conditions	partner 0.125 µg/mL	partner 0.25 µg/mL	partner 0.5 µg/mL
first compound 2 µg/mL	–	0.748	0.373
first compound 16 µg/mL	0.695	0.531	0.236

Conditions	Bliss interaction score
[4]	0.189
[5]	0.155
[6]	-0.188
[7]	-0.057
